Measured values reported in patent US20060172993A1 (priority 2002, published 2006).
Marks after values point to notes of the source that are not given here.

What was measured:
humans = settings: cited from earlier work
[1] = test system: Patients diagnosed with Alzheimer's Disease; assay: CIBIC-plus (Clinician's Interview Based Impression of Change Plus Family Input); type: in vivo, human
Description: (§1) Subjects in the Placebo group received 21 weeks (5 months) of placebo medication.
The CIBIC-plus score was a second primary variable. An independent, experienced and properly trained clinician provided a global impression of the subject's deterioration or improvement over the course of the trial, based on separate interviews with the subject and caregivers. If helpful, the CIBIC rater audiotaped or videotaped the baseline interview for future reference.
The CIBIC-plus was performed at visit 2, 3, 4, and 5 (baseline, week 4, week 13, and month 5 or upon early discontinuation of trial medication intake). Only a trained CIBIC rater performed the test.
For ordinal categorical variables such as the CIBIC-plus score, the Van Elteren test controlling for investigator was used for the between group comparison. For the nominal data (e.g., events rates), the Cochran-Mantel-Haenszel test for general association controlling for investigator was used. A linear contrast on the proportion of patients that stay the same or improve was used to test for increasing response with increasing dose.

[2] = test system: Patients diagnosed with Alzheimer's Disease; assay: ADAS-cog/11 cognitive subscale, 5-month placebo-controlled trial; type: in vivo, human; settings: for ADAS-cog/11 responders, change ≦ 0 points, % / ADAS-cog/11 responders, change ≦ −4 points, % / ADAS-cog/11 responders, change ≦ −7 points, % / ADAS-cog/11 responders, change ≦ −10 points, %: Month 5
Text: as §1
The ADAS consists of two parts—a cognitive subscale and a behavioral subscale. The behavioral subscale was not be used in this study. The cognitive subscale, the ADAS--cog-11, consisted of Word Recall and Word Recognition memory tests, Object and Finger Naming, Commands, Constructional Praxis, Ideational Praxis, Orientation, Remembering Test Instructions, Spoken language Ability, Comprehension of Spoken language and Word Finding Difficulty was the primary variable in this study.
The ADAS was performed at visits 1, 2, 3, 4 and 5 (screening, baseline, week 4, week 13 and month 5 or upon early discontinuation of trial medication intake). For word recall and word recognition two parallel wordlists, list A and list B were employed. List A was used at visits 1 and 3, List B at visits 2, 4, and 5 or upon early discontinuation of trial medication intake. For practical reasons the words for word recognition was presented only once. The total score of the 11 cognitive items on the original ADAS cognitive subscale (ADAS-cog/11, Range: 0-70) was recorded.
Between treatment groups comparisons (with particular focus on differences from placebo) were done at each scheduled time interval and for each endpoint imputation scheme. These comparisons will be based on the change from baseline scores for efficacy parameters with baseline (e.g., ADAS-cog/11) and the original scored for efficacy parameters without baseline e.g., CIBIC-plus).
For continuous data, a two-way analysis of variance (ANOVA) model with treatment and investigator as factors were used to compare the treatment groups for the change from baseline data. The interaction between treatment and investigator was examined. The impact of the baseline score on change from baseline was evaluated. […] If the parametric methods were deemed inappropriate (normality assumption violated), nonparametric methods such as two-way ANOVA on ranked data, Van Elteren test, controlling for investigator, was used. Following ANOVA, Fisher's LSD procedure was used for pairwise comparisons between each galanthamine group and the placebo group. A linear contrast on the main effect for treatment was used to test the dose response relationship.

[3] = test system: Patients diagnosed with Alzheimer's Disease; assay: Discontinuation of trial medication; type: in vivo, human
[4] = test system: Patients diagnosed with Alzheimer's Disease; assay: Neuropsychiatric Inventory (NPI); type: in vivo, human
Text: as §1
Neuropsychiatric behavior was monitored by a test known as The Neuropsychiatric Inventory (NPI) (Cummings, J. L. et al., Neurology, 44: 2308-2314, 1994). The NPI covers 10 domains of behaviors reported in patients with Alzheimer's Disease: delusions, hallucinations, agitation/aggression, dysphoria, anxiety, euphoria, apathy, disinhibition, irritability/lability and aberrant motor behavior. For each domain abnormal behavior can be absent (score 0) or present. If present, the frequency and severity of abnormal behavior is rated based on answers to a set of subquestions regarding behaviors relevant to that domain. Severity was rated 1 to 3 as mild, moderate or marked. Frequency was rated 1 to 4 as occasionally, often, frequently and very frequently. The product of frequency and severity (maximum score=12) was calculated for each domain. A total of NPI was calculated as the sum of the frequency and severity products (maximum score=120). The NPI was performed at visits 2, 3, 4 and 5 (baseline, week 4, week 13, and month 5 or upon early discontinuation of trial medication).

For `COc1ccc2c3c1O[C@H]1C[C@@H](O)C=C[C@@]31CCN(C)C2` [GAL, galantamine], which “Passing the blood-brain barrier” value (humans; humans) is on record?
The value was “capable of passing the blood-brain barrier in humans”.

What about the “Side effects” value (humans; therapeutically effective dosages) of the same molecule?
Its value is “no severe side effects”.

And the “CIBIC-plus at Month 5 improved/no change, % of patients” value ([1]; 8 mg/day, LOCF)?
The value was “(53%)”.

And the “CIBIC-plus at Month 5 improved/no change, % of patients” value ([1]; 8 mg/day, observed case)?
The value was “(51%)”.

What about the “CIBIC-plus at Month 5 improved/no change, % of patients” value ([1]; 16 mg/day, LOCF) of the same molecule?
Its value is “(66%)***^†”.

And the “CIBIC-plus at Month 5 improved/no change, % of patients” value ([1]; 16 mg/day, observed case)?
Its value is “(68%)***^†”.

And the “CIBIC-plus at Month 5 improved/no change, % of patients” value ([1]; 16 mg/day, observed case, listed as galantamine)?
The value was 68%.

And the “CIBIC-plus at Month 5 improved/no change, % of patients” value ([1]; 24 mg/day, LOCF)?
The value was “(64%)***^‡”.

What about the “CIBIC-plus at Month 5 improved/no change, % of patients” value ([1]; 24 mg/day, observed case) of the same molecule?
The value was “(64%)***^‡”.

And the “CIBIC-plus at Month 5 improved/no change, % of patients” value ([1]; 24 mg/day, observed case, listed as galantamine)?
Its value is 64%.

And the “Change from baseline in ADAS-cog/11 at Month 5, Mean” value (“Change from baseline” below) ([2]; 8 mg/day, LOCF)?
Its value is 0.4.

What about the “ADAS-cog/11 responders, change ≦ 0 points, %” value ([2]; 8 mg/day) of the same molecule?
The value was “(46.5) %”.

And the “ADAS-cog/11 responders, change ≦ −4 points, %” value ([2]; 8 mg/day)?
The value was “(25.7) %”.

And the “ADAS-cog/11 responders, change ≦ −7 points, %” value ([2]; 8 mg/day)?
The value was “(13.9) %”.

And the “ADAS-cog/11 responders, change ≦ −10 points, %” value ([2]; 8 mg/day)?
The value was “(5.9) %”.

What about the “Change from baseline” value ([2]; 8 mg/day, observed case) of the same molecule?
Its value is 0.1.

And the “Change from baseline” value ([2]; 16 mg/day, LOCF)?
The value was −1.4.

And the “ADAS-cog/11 responders, change ≦ 0 points, %” value ([2]; 16 mg/day)?
The value was “(65.4)***^‡ %”.

What about the “ADAS-cog/11 responders, change ≦ −4 points, %” value ([2]; 16 mg/day) of the same molecule?
The value was “(35.6)***♦ %”.

And the “ADAS-cog/11 responders, change ≦ −7 points, %” value ([2]; 16 mg/day)?
The value was “(15.9)** %”.

And the “ADAS-cog/11 responders, change ≦ −10 points, %” value ([2]; 16 mg/day)?
Its value is “(7.2) %”.

What about the “ADAS-cog/11 responders, change ≦ −7 points, %” value ([2]; 16 mg/day, listed as galantamine) of the same molecule?
Its value is 15.9%.

And the “Change from baseline” value ([2]; 16 mg/day, observed case)?
The value was −1.5.

And the “Change from baseline” value ([2]; 24 mg/day, LOCF)?
Its value is −1.4.

And the “ADAS-cog/11 responders, change ≦ 0 points, %” value ([2]; 24 mg/day)?
The value was “(64.9)***^‡ %”.

And the “ADAS-cog/11 responders, change ≦ −4 points, %” value ([2]; 24 mg/day)?
The value was “(37.0)***^† %”.

What about the “ADAS-cog/11 responders, change ≦ −7 points, %” value ([2]; 24 mg/day) of the same molecule?
The value was “(22.3)***♦♦ %”.

What about the “ADAS-cog/11 responders, change ≦ −10 points, %” value ([2]; 24 mg/day) of the same molecule?
The value was “(10.4)** %”.

And the “ADAS-cog/11 responders, change ≦ −7 points, %” value ([2]; 24 mg/day, listed as galantamine)?
Its value is 22.3%.

What about the “Change from baseline” value ([2]; 24 mg/day, observed case) of the same molecule?
Its value is −1.8.

What about the “DC due to adverse event, %” value ([3]; 8 mg/day) of the same molecule?
Its value is 6%.

And the “Total discontinued (DC), %” value ([3]; 8 mg/day)?
Its value is 23%.

And the “DC due to adverse event, %” value ([3]; 16 mg/day)?
Its value is 7%.

And the “Total discontinued (DC), %” value ([3]; 16 mg/day)?
The value was 22%.

And the “DC due to adverse event, %” value ([3]; 24 mg/day)?
The value was 10%.

What about the “Total discontinued (DC), %” value ([3]; 24 mg/day) of the same molecule?
The value was 22%.

And the “Change in Total NPI score from baseline at Month 5, Mean” value (“Change in Total NPI score from baseline” for short) ([4]; 8 mg/day, LOCF)?
The value was 2.3.

What about the “Change in Total NPI score from baseline” value ([4]; 8 mg/day, observed case) of the same molecule?
Its value is 2.3.

And the “Change in Total NPI score from baseline” value ([4]; 16 mg/day, LOCF)?
The value was −0.1.

And the “Change in Total NPI score from baseline” value ([4]; 16 mg/day, observed case)?
The value was −0.1.

What about the “Change in Total NPI score from baseline” value ([4]; 24 mg/day, LOCF) of the same molecule?
Its value is −0.0.

What about the “Change in Total NPI score from baseline” value ([4]; 24 mg/day, observed case) of the same molecule?
Its value is −0.1.
